Laboratory results: patent US9066948B2, “Oxadiazolo[3,2-a]pyrimidines and thiadiazolo[3,2-a]pyrimidines” (THE UNITED STATES OF AMERICA AS REPRESENTED BY THE …, priority 2010, dated 2015)

Columns and labels:
washed platelets [1] = assay: Effect of Mg2+ concentration on platelet adhesion to fibrinogen; assay type: cell-based, human; conditions: for IC50: Homo sapiens, Platelet, mean±SD, three experiments
Method: Washed platelets in buffers containing 1 mM Ca^2+ plus 1 mM, 20 mM, or 50 mM Mg^2+ are added to wells pre-coated with fibrinogen (50 μg/ml) for 60 min at 22° C. After washing, adherent platelets are detected by acid phosphatase activity. Results are expressed as mean±SD (n=3 for the compound of Example 27 of the current invention and 2-ethyl-7-(piperazin-1-yl)-5H-[1,3,4]thiadiazolo-[3,2-a]pyrimidin-5-one (a compound disclosed and claimed in U.S. Ser. No. 12/514,286); n=2 for tirofiban).

[2] = molecular target: T1, HEK293 cells stably expressing normal human αVβ3 (Homo sapiens, UniProt P05106+P06756); assay: αVβ3-mediated cell adhesion to vitronectin; assay type: cell-based
T1 construct: expressed in transfected cells; host or cells: HEK293
Method: Washed platelets are prepared as per the primary screening assay, suspended in HBMT containing 1 mM MgCl2 (platelet adhesion to collagen) or 2 mM CaCl2/1 mM MgCl2 (platelet adhesion to fibrinogen) and adjusted to a count of 250×10^9/L. HEK293 cells stably expressing normal human αVβ3 or normal human αIIbβ3 are suspended in HBMT containing either 1 mM MgCl2 (HEK293 cells expressing αVβ3 for adhesion to vitronectin) or 2 mM CaCl2/1 mM MgCl2 (HEK293 cells expressing αIIbβ3 for adhesion to fibrinogen); the cell counts are adjusted to 10^6/mL. Polystyrene 96-well microtiter plates (Nunc) are coated with either fibrinogen (50 μg/mL), vitronectin (5 μg/mL), or collagen (33 μg/mL, rat tail type 1; Becton Dickinson) for 1 hour, and blocked with HBMT for at least 1 hour. Platelets and cells are treated with the compound of Example 27 of the current invention or 2-ethyl-7-(piperazin-1-yl)-5H-[1,3,4]thiadiazolo-[3,2-a]pyrimidin-5-one of U.S. Ser. No. 12/514,286 in the presence or absence of anti-α2β1 mAb 6F1, anti-αIIbβ3 mAb 10E5, anti-αIIbβ3 mAb 10E5+αVβ3 mAb 7E3, αVβ3-specific mAb LM609, or anti-αVβ3+αIIbβ3 mAb 7E3, for 15 minutes at 37° C. before being added to the microtiter wells. After adhering for 1 hour at either 22° C. (platelets) or 37° C. (cells), nonadherent platelets or cells are removed by washing 3 times with HBMT containing the same ion composition as the buffer used for adhesion. […] In other experiments, 8-chambered glass coverslips (Nunc) are coated with collagen (33 μg/mL) for 1 hour at 22° C. Washed platelets are allowed to adhere for 1 hour at 22° C. and the coverslips are stained with the Alexa-488-conjugated β3-specific mAb 7H2. Adherent platelets are imaged using a Zeiss LSM-510 confocal system with Axiovert 200 microscope (Carl Zeiss, Heidelberg, Germany) using a Plan-Apochromat 100/1.4 NA oil DIC objective.

washed platelets [3] = assay: Effect of Mg2+ on washed platelet aggregation induced by thrombin receptor activating peptide (SFLLRN); assay type: cell-based, human; conditions: compound at 1 μM; SFLLRN 10 μM
Method: Washed platelets are resuspended in buffer containing fibrinogen (200 μg/ml) and 1 mM […] in combination with either 1 mM or 20 mM Mg^2+. Aggregation is induced by adding a thrombin receptor activating peptide (SFLLRN) at 10 μM.

hαIIb/mβ3 platelets = assay: ADP-induced aggregation of platelets from mice expressing hαIIb/mβ3 (Example 45); assay type: cell-based, mouse
Method: Blood may be drawn via cardiac puncture from anesthetized Sprague Dawley rats (Taconic, Hudson, N.Y.), WT C57B1/6 mice (Jackson Laboratories, Bar Harbor, Me.), and mice expressing hαIIb/mβ3 and diluted 1:1 with a mixture of 4 parts 0.165 […], pH 7.4 containing 2 mM CaCl2 and 1 mM MgCl2. Blood from consenting human volunteers is obtained from a peripheral vein using a 19 gauge needle and anticoagulated with 1:10 vol 3.8% sodium citrate. Platelet-rich plasma (PRP) may be isolated by centrifugation at 22° C. at 350 g for 10 minutes (rats); 250 g for 2.5 minutes (mice); or 650 g for 4 minutes (human). Mouse PRP samples may be adjusted to 400,000 platelets/μl with the buffer used for dilution and human PRP may be adjusted to 300,000 platelets/μl with platelet-poor plasma. Samples of PRP may be either untreated or incubated for 5 minutes at 37° C. with the Compounds of the Invention (100 μM). Platelet aggregation may be induced by adding to PRP adenosine diphosphate (ADP) at 30 μM (rats and WT mice), 20 or 30 μM (hαIIb/mβ3 mice), or 5 μM (humans), and light transmission may be measured over time in an aggregometer (Kowa AG-10E, Tokyo, Japan) with stirring. Percent inhibition may be calculated by comparing the initial slope of untreated samples to the samples treated with the Compounds of the Invention.

T1 sequence (P06756 31-889 limits assumed): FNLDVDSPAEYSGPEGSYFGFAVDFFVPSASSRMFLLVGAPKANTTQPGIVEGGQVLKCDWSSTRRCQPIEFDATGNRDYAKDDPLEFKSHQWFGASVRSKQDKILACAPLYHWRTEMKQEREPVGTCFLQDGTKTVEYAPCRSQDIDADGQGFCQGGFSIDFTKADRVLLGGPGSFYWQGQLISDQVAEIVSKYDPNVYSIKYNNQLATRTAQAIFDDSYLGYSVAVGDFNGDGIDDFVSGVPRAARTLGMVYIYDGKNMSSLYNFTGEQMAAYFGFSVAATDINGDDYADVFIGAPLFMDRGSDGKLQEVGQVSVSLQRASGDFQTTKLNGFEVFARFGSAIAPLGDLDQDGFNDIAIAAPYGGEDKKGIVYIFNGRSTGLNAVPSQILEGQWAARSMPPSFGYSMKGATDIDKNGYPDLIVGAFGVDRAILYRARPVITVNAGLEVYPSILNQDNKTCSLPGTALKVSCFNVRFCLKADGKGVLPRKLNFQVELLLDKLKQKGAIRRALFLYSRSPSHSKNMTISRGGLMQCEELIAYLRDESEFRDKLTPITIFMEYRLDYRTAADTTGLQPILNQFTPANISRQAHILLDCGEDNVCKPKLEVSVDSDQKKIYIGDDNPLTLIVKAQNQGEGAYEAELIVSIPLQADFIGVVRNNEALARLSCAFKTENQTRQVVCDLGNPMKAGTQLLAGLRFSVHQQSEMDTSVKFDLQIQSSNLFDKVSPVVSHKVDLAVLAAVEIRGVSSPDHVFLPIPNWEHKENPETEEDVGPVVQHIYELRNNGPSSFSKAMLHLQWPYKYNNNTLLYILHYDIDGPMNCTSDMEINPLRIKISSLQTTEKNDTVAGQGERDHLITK
T1 sequence (P06756 891-1048 partner limits assumed): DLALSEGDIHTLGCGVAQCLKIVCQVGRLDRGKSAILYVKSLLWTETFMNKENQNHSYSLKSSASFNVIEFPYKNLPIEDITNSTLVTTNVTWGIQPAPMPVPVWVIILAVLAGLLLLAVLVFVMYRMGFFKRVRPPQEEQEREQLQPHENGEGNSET
T1 sequence (P05106 27-788): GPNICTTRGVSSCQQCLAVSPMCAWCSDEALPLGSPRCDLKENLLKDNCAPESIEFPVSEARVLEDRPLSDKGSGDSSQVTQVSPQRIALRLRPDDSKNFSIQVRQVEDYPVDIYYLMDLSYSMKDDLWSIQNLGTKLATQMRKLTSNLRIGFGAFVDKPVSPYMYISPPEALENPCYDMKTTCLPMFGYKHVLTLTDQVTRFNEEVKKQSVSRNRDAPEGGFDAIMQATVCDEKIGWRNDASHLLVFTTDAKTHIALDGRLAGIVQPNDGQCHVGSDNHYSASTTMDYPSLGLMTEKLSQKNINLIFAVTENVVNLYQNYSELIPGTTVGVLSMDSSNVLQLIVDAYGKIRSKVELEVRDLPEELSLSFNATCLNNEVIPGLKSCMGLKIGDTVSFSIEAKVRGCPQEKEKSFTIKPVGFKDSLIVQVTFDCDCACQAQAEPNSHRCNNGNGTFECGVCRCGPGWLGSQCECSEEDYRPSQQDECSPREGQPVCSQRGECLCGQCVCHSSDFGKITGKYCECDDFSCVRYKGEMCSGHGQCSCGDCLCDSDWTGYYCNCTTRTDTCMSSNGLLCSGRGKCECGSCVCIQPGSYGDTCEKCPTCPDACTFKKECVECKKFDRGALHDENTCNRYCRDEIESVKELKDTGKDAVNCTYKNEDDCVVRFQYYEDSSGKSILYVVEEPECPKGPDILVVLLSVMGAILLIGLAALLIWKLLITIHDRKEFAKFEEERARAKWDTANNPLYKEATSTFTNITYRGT

## NCC(=O)Nc1cccc(-c2nn3c(=O)cc(N4CCNCC4)nc3s2)c1 [Example 27, 2-amino-N-(3-(5-oxo-7-(piperazin-1-yl)-5H-[1,3,4]thiadiazolo[3,2-a]pyrimidin-2-yl)phenyl)acetamide]
Washed platelets [1]; 1 to 50 mM Mg2+
  decrease in affinity going from 1 to 50 mM Mg2+: ~80%
  increase in IC50 going from 1 to 50 mM Mg2+: ~4.5 fold
Washed platelets [1]; 1 mM Mg2+
  IC50: 290 ± 100 nM
Washed platelets [1]; 20 mM Mg2+
  IC50: 910 ± 210 nM
Washed platelets [1]; 50 mM Mg2+
  IC50: 1300 ± 350 nM
[2]
  selectivity for αIIbβ3 compared to αVβ3: selective for αIIbβ3 compared to αVβ3
Washed platelets [3]
  effect of Mg2+ on the inhibition of SFLLRN-induced platelet aggregation: clearly attenuated at 20 mM Mg^2+
hαIIb/mβ3 platelets
  inhibition of aggregation of platelets from a mouse expressing hαIIb/mβ3: essentially completely inhibits the aggregation
